The values that follow come from patent EP0326490B2, “Synthetic peptides and mixtures thereof for detecting HIV antibodies” (ADALTIS INC., priority 1988, dated 2004).

The assay has as its system HIV-2 positive sera. Description: ELISA, single peptides identifying HIV-2 positive sera. The settings on record: single peptide. The class given is binding, human. On the procedure: A preferred convenient and classical technique for the determination of antibodies against AIDS virus using a peptide or a peptide mixture of the present invention is an enzyme-linked immunosorbent assay (ELISA). According to this test a peptide or a peptide mixture of the present invention is adsorbed onto the wells of a microtiter plate. The wells are then treated with sera to be tested. After washing, anti-human IgG labeled with peroxidase is added to the wells. The determination of the peroxidase is performed with a corresponding substrate, e.g. with o-phenylene diamine. Also in this procedure the peroxidase can be exchanged by another label, e.g. by a radioactive or fluorescence label. […]
TABLE 4 provides the results of single peptides which were individually evaluated in identifying known HIV-2 positive sera.
Each well of the microtiter plate is saturated with 100 µl of a solution containing a peptide or mixture of peptides (5 µg/ml) and left overnight. […] Serum samples to be analyzed are diluted with specimen buffer (washing buffer plus casein, 0.05% w/v). […] After 10 minutes the contents of each well is treated with 0.1 ml 2N H2SO4 and the optical density read at 450 nm. […]

Turning to `CC[C@H](C)[C@H](NC(=O)[C@H](CCC(=O)O)NC(=O)[C@@H](NC(=O)[C@@H](N)CC(C)C)C(C)C)C(=O)N[C@H](C(=O)N1CCC[C@H]1C(=O)N[C@H](C(=O)NCC(=O)N[C@@H](Cc1ccccc1)C(=O)N[C@@H](C)C(=O)N1CCC[C@H]1C(=O)N[C@H](C(=O)N[C@@H](CCCCN)C(=O)N[C@@H](CCC(=O)O)C(=O)N[C@@H](CCCCN)C(=O)N[C@@H](CCCNC(=N)N)C(=O)O)[C@@H](C)O)[C@@H](C)CC)[C@@H](C)O` [Peptide 204], the “%Positive sera correctly Identified” value came to 100%.
